Measured values published in article doi:10.1101/2025.10.27.684712v1, “Structure-guided development of a potent human B^0AT1 inhibitor effective in a mouse model of phenylketonuria” (biorxiv, 2025).

Key:
hB^0AT1-ACE2 complex = biological target: T1, hB^0AT1-ACE2 complex (Homo sapiens, UniProt Q695T7); assay: binding to crude membranes, filtration and LC-MS/MS
T1 construct: gene SLC6A19; wild type; N-terminal FLAG on B0AT1, Strep-tag after ACE2 signal peptide; FreeStyle 293-F; with Angiotensin-converting enzyme 2

[1] = biological target: T2, hB^0AT1 (human SLC6A19) co-expressed with human Collectrin (Homo sapiens, UniProt Q695T7); assay: inhibition of d5-phenylalanine uptake, LC-MS/MS; type: cell-based
T2 construct: hSLC6A19-T2A-hCollectrin synthetic construct, wild type, doxycycline-inducible in JTREx-CHO cells; with Collectrin
T2 sequence (Q695T7 1-634): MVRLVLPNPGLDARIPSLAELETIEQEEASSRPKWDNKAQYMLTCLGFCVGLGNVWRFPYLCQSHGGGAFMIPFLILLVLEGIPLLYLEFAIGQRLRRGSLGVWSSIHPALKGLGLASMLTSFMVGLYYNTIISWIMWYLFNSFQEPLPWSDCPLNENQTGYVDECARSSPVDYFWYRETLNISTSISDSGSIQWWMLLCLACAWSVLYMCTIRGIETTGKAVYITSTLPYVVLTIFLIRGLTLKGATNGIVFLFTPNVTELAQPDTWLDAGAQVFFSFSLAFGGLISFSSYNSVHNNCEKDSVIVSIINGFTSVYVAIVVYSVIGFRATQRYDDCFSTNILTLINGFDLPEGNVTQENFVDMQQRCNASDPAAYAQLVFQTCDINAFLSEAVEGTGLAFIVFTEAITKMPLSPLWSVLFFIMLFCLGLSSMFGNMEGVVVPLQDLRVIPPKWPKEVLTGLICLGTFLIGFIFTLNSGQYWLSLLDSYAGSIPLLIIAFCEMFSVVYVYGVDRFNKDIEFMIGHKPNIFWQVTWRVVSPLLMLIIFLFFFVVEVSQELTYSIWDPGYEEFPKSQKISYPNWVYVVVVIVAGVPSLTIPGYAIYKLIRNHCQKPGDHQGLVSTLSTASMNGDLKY
T2 sequence (Q9HBJ8 15-222 partner): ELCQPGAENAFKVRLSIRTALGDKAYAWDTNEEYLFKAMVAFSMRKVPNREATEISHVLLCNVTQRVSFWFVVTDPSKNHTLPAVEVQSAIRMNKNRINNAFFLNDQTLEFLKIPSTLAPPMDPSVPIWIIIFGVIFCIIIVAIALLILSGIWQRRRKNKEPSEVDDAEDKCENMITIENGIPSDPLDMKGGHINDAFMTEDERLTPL

[2] = biological target: T3, mB^0AT1 (mouse SLC6A19) co-expressed with mouse Collectrin (Mus musculus, UniProt Q9D687); assay: inhibition of d5-phenylalanine uptake, LC-MS/MS; type: cell-based
T3 construct: mSLC6A19-T2A-mCollectrin synthetic construct, doxycycline-inducible in JTREx-CHO cells; with Collectrin
T3 sequence (Q9D687 1-634): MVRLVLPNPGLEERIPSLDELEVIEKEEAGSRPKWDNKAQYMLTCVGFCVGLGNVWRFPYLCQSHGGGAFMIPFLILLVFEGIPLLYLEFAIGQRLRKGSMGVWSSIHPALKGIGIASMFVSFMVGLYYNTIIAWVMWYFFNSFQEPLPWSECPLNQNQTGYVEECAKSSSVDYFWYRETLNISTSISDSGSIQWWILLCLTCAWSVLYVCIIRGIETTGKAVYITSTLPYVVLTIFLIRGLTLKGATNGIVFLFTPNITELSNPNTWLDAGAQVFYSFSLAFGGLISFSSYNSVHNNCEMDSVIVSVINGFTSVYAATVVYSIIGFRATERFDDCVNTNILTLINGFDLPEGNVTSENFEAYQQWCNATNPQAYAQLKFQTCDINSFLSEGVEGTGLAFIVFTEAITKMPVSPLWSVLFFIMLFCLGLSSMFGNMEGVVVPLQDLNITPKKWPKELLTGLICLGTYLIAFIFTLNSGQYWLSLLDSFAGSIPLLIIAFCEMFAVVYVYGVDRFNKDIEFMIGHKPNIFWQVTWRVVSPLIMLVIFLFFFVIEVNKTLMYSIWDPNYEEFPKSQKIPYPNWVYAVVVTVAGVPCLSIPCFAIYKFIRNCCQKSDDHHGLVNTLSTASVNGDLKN
T3 sequence (Q9ESG4 15-222 partner): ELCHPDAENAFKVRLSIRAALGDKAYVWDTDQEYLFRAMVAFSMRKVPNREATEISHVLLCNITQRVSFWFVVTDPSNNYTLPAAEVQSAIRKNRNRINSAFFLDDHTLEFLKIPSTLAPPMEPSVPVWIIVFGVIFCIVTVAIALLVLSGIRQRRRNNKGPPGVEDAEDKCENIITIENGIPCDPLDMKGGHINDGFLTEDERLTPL

[3] = biological target: T2, hB^0AT1 (human SLC6A19) co-expressed with human Collectrin; assay: d5-phenylalanine uptake kinetics, LC-MS/MS; type: cell-based; details: labelled compound; 100 mM NaCl, pH 7.4, 37 °C, no inhibitor

T1 sequence (Q9BYF1 18-805 partner, one chain of several): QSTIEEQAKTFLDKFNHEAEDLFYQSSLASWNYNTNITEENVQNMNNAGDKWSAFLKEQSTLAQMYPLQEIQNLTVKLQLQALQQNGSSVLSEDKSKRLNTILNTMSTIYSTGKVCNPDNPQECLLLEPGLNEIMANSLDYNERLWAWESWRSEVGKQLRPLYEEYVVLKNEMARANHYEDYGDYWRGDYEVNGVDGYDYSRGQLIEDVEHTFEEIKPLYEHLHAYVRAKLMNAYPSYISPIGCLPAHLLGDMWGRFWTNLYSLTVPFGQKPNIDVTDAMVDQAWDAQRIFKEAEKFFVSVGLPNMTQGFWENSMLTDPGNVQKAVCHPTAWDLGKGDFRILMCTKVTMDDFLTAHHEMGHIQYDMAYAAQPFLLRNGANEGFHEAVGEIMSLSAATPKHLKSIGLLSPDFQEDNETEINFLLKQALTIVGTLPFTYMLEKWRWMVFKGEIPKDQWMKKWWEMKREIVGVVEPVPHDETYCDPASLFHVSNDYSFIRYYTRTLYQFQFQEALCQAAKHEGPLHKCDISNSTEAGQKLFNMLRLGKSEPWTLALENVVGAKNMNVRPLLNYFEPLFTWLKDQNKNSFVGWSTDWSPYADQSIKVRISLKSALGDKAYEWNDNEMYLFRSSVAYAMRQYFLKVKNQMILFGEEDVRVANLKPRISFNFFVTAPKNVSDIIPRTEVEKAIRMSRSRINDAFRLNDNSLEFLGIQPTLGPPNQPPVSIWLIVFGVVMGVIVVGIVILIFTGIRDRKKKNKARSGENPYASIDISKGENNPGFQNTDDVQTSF

CN(C)C(=O)CNC(=O)/C=C/c1ccc(C(F)(F)F)cc1 [compound 2]
Kd (hB^0AT1-ACE2 complex): 140 nM
IC50 [1]: 5500 nM
IC50 [2]: 1980 nM

O=C(/C=C/c1ccc(C(F)(F)F)cc1)NCC(=O)N1CCNC(=O)C1 [compound 3]
Kd (hB^0AT1-ACE2 complex): 47 nM
IC50 [1]: 513 nM
IC50 [2]: 295 nM

d5-phenylalanine
Km [3]: 866 ± 144 µM

CCNC(=O)/C=C/c1cccc(Br)c1 [compound 1, Cinromide]
Kd (hB^0AT1-ACE2 complex): 472 nM
IC50 [1]: 970 nM
IC50 [2]: > 10000 nM
